According to patent US20230158057A1, “COMPOSITIONS AND METHODS FOR THE TREATMENT OF PAIN” (Duke University, priority 2020, published 2023):
“Also recorded” adds a separate entry of the source.

Assays:
[1] = tested on: rhesus macaques (Macaca mulatta); assay: Menthol gel-induced cold allodynia, cold-water tail-withdrawal assay in non-human primates; format: in vivo
Experimental: Behavioral testing in non-human primates: Five adult rhesus monkeys (Mucaca mulatta, 9.3-13.8 kg) were maintained in an AAALAC-approved facility at Wake Forest University School of Medicine in accordance with Wake Forest University IACUC regulations. Animals were individually housed in temperature- and humidity-controlled species-specific rooms maintained in a 12 h light/12 h dark cycle. All animals have been previously trained in the tail-withdrawal assay. All experimental procedures were conducted in accordance with the Guide for the Care and Use of Laboratory Animals standards adopted by the NIH. Drug infusion was through a previously implanted spinal catheter. Behavioral testing was performed by an experimenter who was blinded to the drug being administered. A cold-water tail-withdrawal assay was used to evaluate nociceptive responses to 16° C. water with a cut-off of 20 sec. 0.3 mL of 2% menthol gel (Millipore Sigma) was applied to the tail for 3 minutes to induce transient and reversible cold allodynia.

LLC lung tumor nodules = assay: Lung metastases after intrafemoral LLC inoculation; format: in vivo, mouse; conditions: d17, 20 mg/kg i.p., vs vehicle or ZA
Excerpt: Visual and immunohistochemical analysis of lung metastases. Mice were deeply anesthetized with isoflurane and perfused intracardially with PBS, followed by 4% PFA. After the perfusion, lungs were removed from mice and post-fixed in the same fixative overnight. The samples were then dehydrated with a 30% sucrose solution, embedded in O.C.T. (Tissue Tek), and cryosectioned to produce 8 μm thick sections. For Hematoxylin and Eosin (H & E) staining, lung sections were rehydrated and stained with 0.1% Hematoxylin and 0.5% Eosin in sequence. After dehydration and clearance with HistoClear (Electron

[2] = tested on: outer lamina II (IIo) spinal cord interneurons; assay: Whole-cell patch-clamp recording in mouse spinal cord slices; format: cell-based; conditions: slice incubation
Experimental: Whole-cell patch-clamp recording in mouse spinal cord slices: 4 to 6-week-old mice were anesthetized with urethane (1.5-2.0 g/kg, i.p.). […] After extraction of the spinal cord under anesthesia, animals were rapidly euthanized via decapitation. Transverse spinal slices (300 to 400 μm) were prepared using a vibrating microtome (VT1200S Leica). The slices were incubated at 32° C. for at least 30 min in ACSF equilibrated with 95% O2 and 5% CO2. The slices were placed in a recording chamber and completely submerged and perfused at a flow rate of 2 to 4 ml/min with ACSF saturated with 95% O2 and 5% CO2 at room temperature. Lamina II neurons in lumbar segments were identified as a translucent band under a microscope (BX51WIF; Olympus) with light transmitted from below. Whole-cell voltage-clamp recordings were made from outer lamina II neurons using patch pipettes. The patch pipette solution used to record sEPSCs contained 135 mM K-gluconate, 5 mM KCl, 0.5 mM CaCl2, 2 mM MgCl2, 5 mM EGTA, 5 mM HEPES, and 5 mM Mg-ATP (pH 7.3 adjusted with KOH). […] Signals were acquired using an […] amplifier. The data were stored and analyzed with a PC using pCLAMP 10.3 software.

CTX-I = assay: Serum CTX-I ELISA; format: in vivo, mouse; conditions: d17
Experimental: ELISA. Mouse high-sensitivity IFN-α ELISA kit (42115-1) and IFN-β ELISA kit (42410-1) were purchased from PBL Assay Science. Mouse CTX-I ELISA kit (AC-06F1) and mouse PINP ELISA kit (AC-33F1) were purchased from Immunodiagnostic Systems. ELISA was performed using culture medium, serum, and bone marrow lysates. Serum was obtained from whole blood that was collected from a submandibular vein via facial vein puncture, coagulated for 30 minutes at room temperature, followed by centrifugation (2,000 ×g for 10 min, 4° C.) and collection of the supernatant (serum). Bone marrow was homogenized in a lysis buffer containing protease inhibitors at 4° C. for 30 minutes. ELISA was conducted in accordance with the manufacturer's instructions. A standard curve was performed for each experiment.

[3] = tested on: tumor-infiltrating lymphocytes (TILs); assay: Flow cytometry of tumor-infiltrating lymphocytes in bone marrow; format: in vivo, mouse; conditions: 24 h after second injection
Experimental: Flow cytometry. For analysis of immune subsets present within the bone marrow tumor microenvironment, bone marrow was collected as previously described followed by removal of RBC cells using RBC lysis buffer (Sigma, R7757). Cells were subsequently washed with PBS and resuspended in 2% paraformaldehyde in PBS for 10 minutes. Fixed cells were washed several times with PBS, followed by incubation in blocking buffer (1% anti-mouse-CD16/CD32, 2.4 G2, 2% FBS, 5% NRS, 1% triton ×100 and 2% NMS in HBSS; BD Bioscience) for 1 h at room temperature. Cells were subsequently stained with IL-17-FITC (1:20, rat, Miltenyi Biotec, 130-102-262), CD-3 APC/cy7 (1:200, rat, Biolegend, 100221), CD-4 APC (1:200, rat, Biolegend, 100411), FoxP3-PE (1:20, human, Miltenyl Biotec, 130-111-678), CD8a-FITC (1:200, rat, Biolegend, 100705), and CD11b-PE(1:200, rat, Biolegend, 101207) in blocking buffer for 1 h at room temperature. After staining, cells were washed in PBS with EDTA. Flow cytometry events were acquired by a BD FACS Canto II flow cytometer using the BD FACS Diva 8 software (BD Bioscience). Data were analyzed using Cytobank software (https://www.cytobank.org/cytobank).

Row | Structure (SMILES) | 2% menthol gel-induced cold allodynia ([1]; i.t. catheter) | intrathecal dose producing analgesia in NHPs ([1]; vs. 35 nmol in murine models) [nmol] | lung tumor nodules (LLC lung tumor nodules) | frequency and amplitude of spontaneous EPSCs (sEPSCs) [2] | serum CTX-I levels (CTX-I) | proportion of CD4^+ T cells in bone marrow [3] | proportion of CD8^+ T cells in bone marrow [3] | proportion of T^reg cells in bone marrow [3]
1 | Nc1ncnc2c1ncn2[C@@H]1O[C@@H]2COP(=O)([S-])O[C@@H]3[C@H](O)[C@@H](COP([O-])(=S)O[C@H]2[C@H]1O)O[C@H]3n1cnc2c(N)ncnc21.[Na+].[Na+] (stereo partly drawn) [ADU-S100, (2′-5′)-[P(R)]-5′-O-[(R)-hydroxymercaptophosphinyl]-P-thioadenylyl-adenosine cyclic dinucleotide] | long-lasting and dose-dependent analgesia; also recorded: attenuated 2% menthol gel-induced cold allodynia in a dose-dependent manner | 3 | fewer lung tumor nodules | decreased both the frequency and amplitude of spontaneous EPSCs | – | – | – | –
2 | Cc1ccc2c(=O)c3cccc(CC(=O)O)c3oc2c1C [DMXAA, 2-(5,6-dimethyl-9-oxo-9H-xanthen-4-yl)acetic acid] | – | – | – | – | could effectively reduce CTX-I levels on d17 | without significantly changing the proportion of (CD11b^− CD3^+) CD4^+ T cells | significantly increased the proportion of (CD11b^− CD3^+) CD8^+ T cells | decreased the proportion of T^reg cells
